The text below walks through data of EP0227593A1, “Use of chelating agents” (THE HOSPITAL FOR SICK CHILDREN, priority 1985, dated 1987).

A value given as a limit tells only on which side of the number the result lay.

One assay relates to patient's PB blast cells. The experiment in a line: ALL blast colony assay. It is filed as cell-based. Conditions: Homo sapiens. The method, then: ALL Blast Colony Assay: The assay we used is a modification of previously described methods. T-cell depletion: Post-Ficoll mononuclear BM cells were incubated with neuraminidase sensitized sheep erthrocytes (SRBC) at 4°C for 2 hours, followed by gradient centrifugation. This procedure was repeated twice. Cells at the interface contained less than 0.5 % T-cells as assessed by AET sensitized SRBC rosette formation and using anti-Leu-4 and anti-Leu-5 monoclonal anti-T-cell antibodies (Becton Dickinson, CA). T-lymphocytes were obtained by recovery of rosetted cells from the pellet following lysis with Tris-buffered ammonium chloride (Sigma, St. Louis, MO). Feeder Cells: Post-Ficoll normal donors' PB cells were depleted of adherent cells by incubation on plastic Petri dishes with 10 % fetal calf serum for 90 min. at 37°C. […]
Cell Culture Procedure: 2 x 10⁵ T-depleted cells were incubated with 40 % RPMI-methylcellulose, 20 % PHA-LCM, 10 % FCS, irradiated feeder cells (10⁵/dish), 16.6 % RPMI in 35 mm Petri dishes. […] Colonies were counted at day 4. […] For control, 2 x 10⁵ irradiated feeder cells were cultured in the same assay system in each experiment to exclude their potential for colony formation Immunocytochemical Method: The cell surface antigens of air dried smears were detected using monoclonal antibodies and intestinal alkaline phosphatase, as previously described. […]

In assay [1] the test system is peripheral blood blast cells. The experiment in a line: Surface marker analysis on PB smears before and after 48 hours of deferoxamine treatment (immunocytochemical method). More on the design: key to Ia intensity of staining / OKM1 intensity of staining / MY-4 intensity of staining: strong (+++); moderate (++); weak (+). Conditions: PB smears after 48 hours of deferoxamine treatment. Type of assay: in vivo, human. The protocol:
Cell Culture Procedure: 2 x 10⁵ T-depleted cells were incubated with 40 % RPMI-methylcellulose, 20 % PHA-LCM, 10 % FCS, irradiated feeder cells (10⁵/dish), 16.6 % RPMI in 35 mm Petri dishes. The culture dishes were placed into a specialized modular incubator chamber (Billups-Rosenberg, Del Mar, CA) in a humidified atmosphere of 5 % O₂, 5 % CO₂ and balanced nitrogen for 3-6 days. After 2 days of incubation, the culture dishes were carefully examined. Colonies were counted at day 4. A cluster of more than 20 cells was defined as a colony. Individual colonies were plucked from the culture plates and smeared on microscope slides for further evaluation, using Wright stain and non-specific esterase staining. For control, 2 x 10⁵ irradiated feeder cells were cultured in the same assay system in each experiment to exclude their potential for colony formation Immunocytochemical Method: The cell surface antigens of air dried smears were detected using monoclonal antibodies and intestinal alkaline phosphatase, as previously described. This assay was performed to detect surface antigens on patients' PB and BM smears and colonies plucked from cultures. The slides were counter- stained in hematoxylin for light microscopy and the presence of surface antigen was indicated as bright red granular cellular inclusions. Morphologic details were well preserved, and a very high degree of correlation between morphology and surface antigen expression was observed. The intensity of staining was defined as strong (+++), moderate (++) and weak (+). Immunofluorescence Method: The cell surface phenotype was determined by indirect cell-surface fluorescence: A fluorescein-conjugated goat anti-mouse IgG (FAb')₂ was used as second antibody. The labelling was performed at room temperature in the presence of 0.2 % sodium azide. The percentage of cells with surface fluorescence was determined by counting cells stained in three replicate wells using an inverted phase-fluorescent microscope. Monoclonal Antibodies: The following monoclonal antibodies were used in these studies: anti-OKIa (Ortho Diagnostic Systems Inc. Raritan, NJ) to detect HLA-D framework antigen, anti-MY-7, anti-Mol and anti-MY-4 (coulter Immunology) to identify myelomonocytic markers, anti-Ig. anti-BA1, anti-BA2, anti-B1, and anti-B4 (Becton-Dickinson) to recognize cells of the B-cell lineage, anti-J5 (Coulter Immunology) to recognize cells bearing common ALL (CALLA) antigen and anti-Leu-1 and anti-Leu-4 (Coulter Immunology) to recognize cells of the T-cell lineage.
DFO and Blast Cell Differentiation: After 48 hours of continuous infusion of DFO as a single agent, striking changes in blast cell surface markers were detected immunocytochemically (Table 3). Prior to treatment, no blasts expressed OKM1 antigen, and only 8 % weakly expressed MY-4. After 48 hours, these two antigens were strongly detected in peripheral blood blast cells. Concomitantly with DFO therapy, there was a sharp decline from 37 % to 0 % of cells bearing B₄ antigen.
Immunologic surface markers were dermined before and after 48 hours of deferoxamine treatment on PB smears using the immunocytochemical method

Consider `CC(=O)N(O)CCCCCNC(=O)CCC(=O)N(O)CCCCCNC(=O)CCC(=O)N(O)CCCCCN` [DFO, desferioxamine methanesulfonate], for which the inhibition at 2.15 µM in the assay on patient's PB blast cells (2.15 µM DFO, read-out: reduction in blast colonies) turned out to be 70%. Besides, the minimal effective concentration with patient's PB blast cells (patient's PB blast cells, read-out: DFO concentrations with significant decline in blast colonies) was more than 1.25 µM. Also, in assay [1], the B4 positive cells is given as 0%, the CALLA positive cells is given as 0%, the “Ia intensity of staining” value is given as “+++” and the Ia positive cells was 80%. Moreover, in assay [1], the Leu-1 positive cells is 0%, the Leu-4 positive cells was determined as 0%, the “MY-4 intensity of staining” value is given as “+++” and the MY-4 positive cells amounted to 60%. In addition, in assay [1], the “OKM1 intensity of staining” value is “+++” and the OKM1 positive cells is 40%.
